The values below come from publication PMC11672294, “The Antipsychotic Drug Aripiprazole Suppresses Colorectal Cancer by Targeting LAMP2a to Induce RNH1/miR‐99a/mTOR‐Mediated Autophagy and Apoptosis” (Advanced Science, 2024).

Each structure is given as a SMILES string. Where a name gives a salt, the structure may show the parent alone. Read-outs that look alike come from different tables or passages of the source.

The series concerns HT29. The settings on record: 72 h, 10 µM. An outline of the steps:
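Cells were exposed to drug for 72 h, then to WST-1 for 2 h at 37 °C, and absorbance was read at 450 nm as viability against DMSO treatment. In the screen, each compound was applied at 10 µM.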

Where [1] appears, read: relative to DMSO, Relative cell viability (%).

For the molecule `CN(C)Cc1ccc(S(=O)(=O)n2ccc(/C=C/C(=O)NO)c2)cc1` [Resminostat], the “Relative cell viability (%)” value (relative to DMSO) is recorded as 19.9%.
Same read-out and setting: with `CO[C@H]1/C=C/O[C@@]2(C)Oc3c(C)c(O)c4c(c3C2=O)C2=NC3(CCN(CC(C)C)CC3)NC2=C(NC(=O)/C(C)=C\C=C\[C@H](C)[C@H](O)[C@@H](C)[C@@H](O)[C@@H](C)[C@H](OC(C)=O)[C@@H]1C)C4=O` [Rifabutin] the figure was 70.34%; with `CO[C@H]1/C=C/O[C@@]2(C)Oc3c(C)c(O)c4c(O)c(c(/C=N/N5CCN(C)CC5)c(O)c4c3C2=O)NC(=O)/C(C)=C\C=C\[C@H](C)[C@H](O)[C@@H](C)[C@@H](O)[C@@H](C)[C@H](OC(C)=O)[C@@H]1C` [Rifampin], 76.69%.
On the same count and under the same terms, the result for `CO[C@H]1/C=C/O[C@@]2(C)Oc3c(C)c(O)c4c(O)c(c(/C=N/N5CCN(C6CCCC6)CC5)c(O)c4c3C2=O)NC(=O)/C(C)=C\C=C\[C@H](C)[C@H](O)[C@@H](C)[C@@H](O)[C@@H](C)[C@H](OC(C)=O)[C@@H]1C` [Rifapentine] reads 69.07%; that for `CO[C@H]1/C=C/O[C@@]2(C)Oc3c(C)c(O)c4c(O)c(c5c(nc6cc(C)ccn65)c4c3C2=O)NC(=O)/C(C)=C\C=C\[C@H](C)[C@H](O)[C@@H](C)[C@@H](O)[C@@H](C)[C@H](OC(C)=O)[C@@H]1C` [Rifaximin], 94.49%.
Same read-out and setting: the result for `COc1cc(OC)c(/C=C/S(=O)(=O)Cc2ccc(OC)c(NCC(=O)O)c2)c(OC)c1` [Rigosertib (ON-01910)] reads 4.206%; that for `Cc1cc(/C=C/C#N)cc(C)c1Nc1ccnc(Nc2ccc(C#N)cc2)n1` [Rilpivirine], 58.55%; that for `CC(N)C12CC3CC(CC(C3)C1)C2` (stereo not drawn) [Rimantadine], 127.5%.
As for `Cc1c(C(=O)NN2CCCCC2)nn(-c2ccc(Cl)cc2Cl)c1-c1ccc(Cl)cc1` [Rimonabant], the “Relative cell viability (%)” value (relative to DMSO) is listed as 79.61%.
Same read-out and setting: the result for `C[C@H]1CNCCCN1S(=O)(=O)c1cccc2cncc(F)c12` [Ripasudil (K-115)] reads 118.8%; that for `O=C(NC[C@H]1CN(c2ccc(N3CCOCC3=O)cc2)C(=O)O1)c1ccc(Cl)s1` [Rivaroxaban], 107.3%.
For `CCN(C)C(=O)Oc1cccc([C@H](C)N(C)C)c1` [Rivastigmine Tartrate], under setting [1], the “Relative cell viability (%)” value amounted to 125%.
On the same count and under the same terms, with `CCN(C)C(=O)Oc1cccc([C@H](C)N(C)C)c1` [Rivastigmine] the figure was 88.03%.
Turning to `O=C(CCCCCCNC(=O)c1cnc(N(c2ccccc2)c2ccccc2)nc1)NO` [Rocilinostat (ACY-1215)], the “Relative cell viability (%)” value (relative to DMSO) amounted to 32.91%.
On the same count and under the same terms, with `CS(=O)(=O)c1ccc(C2=C(c3ccccc3)C(=O)OC2)cc1` [Rofecoxib] the figure was 116%; with `O=C(Nc1c(Cl)cncc1Cl)c1ccc(OC(F)F)c(OCC2CC2)c1` [Roflumilast], 121.4%; with `CN(CCOc1ccc(CC2SC(=O)NC2=O)cc1)c1ccccn1` (stereo not drawn) [Rosiglitazone HCl], 114.3%.
Consider `CC(C)c1nc(N(C)S(C)(=O)=O)nc(-c2ccc(F)cc2)c1/C=C/[C@@H](O)C[C@@H](O)CC(=O)O` [Rosuvastatin Calcium], for which the “Relative cell viability (%)” value (relative to DMSO) is 120.2%.
The same measure, in the same setting: the result for `CCCN(CCc1cccs1)[C@H]1CCc2c(O)cccc2C1` [Rotigotine] reads 62.12%.
Still for that read-out and setting: the result for `CC(=O)OCC(=O)NCCCOc1cccc(CN2CCCCC2)c1` [Roxatidine Acetate HCl] reads 111%; that for `NC(=O)c1cn(Cc2c(F)cccc2F)nn1` [Rufinamide], 91.43%.
Consider `Cc1cncc(CN2CCC(=C3c4ccc(Cl)cc4CCc4cccnc43)CC2)c1` [Rupatadine Fumarate], for which the “Relative cell viability (%)” value (relative to DMSO) is given as 83.98%.
For `C[C@@H]1O[C@@H](OC[C@H]2O[C@@H](Oc3c(-c4ccc(O)c(O)c4)oc4cc(O)cc(O)c4c3=O)[C@H](O)[C@@H](O)[C@@H]2O)[C@H](O)[C@H](O)[C@H]1O` [Rutin], the “Relative cell viability (%)” value (relative to DMSO) turned out to be 112%.
As to `N#CC[C@H](C1CCCC1)n1cc(-c2ncnc3[nH]ccc23)cn1` [Ruxolitinib (INCB018424)], the “Relative cell viability (%)” value under setting [1] is 77.41%.
Take `COc1ccc([C@H]2CNC(=O)C2)cc1OC1CCCC1` [S- (+)-Rolipram]: the “Relative cell viability (%)” value (relative to DMSO) is recorded as 107.3%.
Consider `N#CC[C@H](C1CCCC1)n1cc(-c2ncnc3[nH]ccc23)cn1` [S-Ruxolitinib (INCB018424)], for which, under setting [1], the “Relative cell viability (%)” value is 98.54%.
With `CC(C)=CCC/C(C)=C/CC/C(C)=C/CSc1ccccc1C(=O)O` [Salirasib], the “Relative cell viability (%)” value (relative to DMSO) was determined as 84.19%.
For `O=C(O)c1cn(-c2ccc(F)cc2)c2cc(N3CCNCC3)c(F)cc2c1=O` [Sarafloxacin HCl], under “relative to DMSO”, the “Relative cell viability (%)” value is given as 85.35%.
Consider `N#C[C@@H]1C[C@@H]2C[C@@H]2N1C(=O)[C@@H](N)C12CC3CC(CC(O)(C3)C1)C2` [Saxagliptin hydrate], for which the “Relative cell viability (%)” value (relative to DMSO) worked out at 117.5%.
On the same count and under the same terms, the result for `NCCc1c[nH]c2ccc(O)cc12` [Serotonin HCl] reads 86.67%; that for `CCCc1nn(C)c2c(=O)[nH]c(-c3cc(S(=O)(=O)N4CCN(C)CC4)ccc3OCC)nc12` [Sildenafil Mesylate], 91.88%.
With `COc1cc([C@H]2Oc3cc([C@H]4Oc5cc(O)cc(O)c5C(=O)[C@@H]4O)ccc3O[C@@H]2CO)ccc1O` [Silibinin], the “Relative cell viability (%)” value (relative to DMSO) was 119.6%.
Regarding `N[C@@H]1CN(c2c(F)cc3c(=O)c(C(=O)O)cn([C@@H]4C[C@@H]4F)c3c2Cl)CC12CC2` [Sitafloxacin Hydrate], the “Relative cell viability (%)” value (relative to DMSO) is recorded as 126.1%.
Still for that read-out and setting: with `CC(C)OC(=O)[C@H](C)N[P@](=O)(OC[C@H]1O[C@@H](n2ccc(=O)[nH]c2=O)[C@](C)(F)[C@@H]1O)Oc1ccccc1` [Sofosbuvir (PSI-7977, GS-7977)] the figure was 121.8%; with `CNC(=O)c1cc(Oc2ccc(NC(=O)Nc3ccc(Cl)c(C(F)(F)F)c3)cc2)ccn1` [Sorafenib], 21.37%.
Same read-out and setting: with `OC[C@@H](O)[C@@H](O)[C@H](O)[C@@H](O)CO` [Sorbitol] the figure was 125%; with `CN1CCN(c2nc(C3=C(c4c[nH]c5ccccc45)C(=O)NC3=O)c3ccccc3n2)CC1` [Sotrastaurin], 49.03%.
Regarding `C[C@@H]1CN(c2c(F)c(N)c3c(=O)c(C(=O)O)cn(C4CC4)c3c2F)C[C@H](C)N1` [Sparfloxacin], the “Relative cell viability (%)” value (relative to DMSO) was found to be 75.42%.
With `C[C@]12Cc3c[nH]nc3C[C@@H]1CC[C@@H]1[C@@H]2CC[C@@]2(C)[C@H]1CC[C@]2(C)O` [Stanozolol], the “Relative cell viability (%)” value (ht29 cells) is listed as 83.05%.
As for `CN(N=O)C(=O)N[C@@H](C=O)[C@@H](O)[C@H](O)[C@H](O)CO` [Streptozotocin (STZ)], the “Relative cell viability (%)” value (relative to DMSO) is on record as 74.3%.
On the same count and under the same terms, with `CC1(C)[C@H](C(=O)O)N2C(=O)C[C@H]2S1(=O)=O` [Sulbactam] the figure was 199.5%; with `Nc1ccc(S(=O)(=O)Nc2ncccn2)cc1` [Sulfadiazine], 85.59%; with `[H]/N=C(/N)NS(=O)(=O)c1ccc(N)cc1` [Sulfaguanidine], 70.303%.
`Cc1nnc(NS(=O)(=O)c2ccc(N)cc2)s1` [Sulfamethizole]: the “Relative cell viability (%)” value (relative to DMSO) is given as 202.3%.
Take `COc1ccc(NS(=O)(=O)c2ccc(N)cc2)nn1` [Sulfamethoxypyridazine]: the “Relative cell viability (%)” value (relative to DMSO) was 72.12%.
Still for that read-out and setting: with `Cc1noc(NS(=O)(=O)c2ccc(N)cc2)c1C` [Sulfisoxazole] the figure was 134.3%.
On the same count and under the same terms, with `CC1=C(CC(=O)O)c2cc(F)ccc2/C1=C\c1ccc([S+](C)[O-])cc1` (stereo not drawn) [Sulindac] the figure was 216.9%; with `COc1cc(NS(=O)(=O)c2ccc(N)cc2)nc(OC)n1` [Sulphadimethoxine], 86.06%.
Same read-out and setting: the result for `CCN(CC)CCNC(=O)c1c(C)[nH]c(/C=C2\C(=O)Nc3ccc(F)cc32)c1C` [Sunitinib] reads 29.06%; that for `CC(C(=O)O)c1ccc(C(=O)c2cccs2)cc1` (stereo not drawn) [Suprofen], 93.22%.
As for `Cc1ccc(-n2nccn2)c(C(=O)N2CCN(c3nc4cc(Cl)ccc4o3)CC[C@H]2C)c1` [Suvorexant (MK-4305)], under “relative to DMSO”, the “Relative cell viability (%)” value is 90.6%.
Take `Cc1cnc(Nc2ccc(OCCN3CCCC3)cc2)nc1Nc1cccc(S(=O)(=O)NC(C)(C)C)c1` [TG101348 (SAR302503)]: under “relative to DMSO”, the “Relative cell viability (%)” value was determined as 16.99%.
Still for that read-out and setting: the result for `Cn1c(COP(=O)(NCCBr)NCCBr)cnc1[N+](=O)[O-]` [TH-302] reads 83.98%; that for `C=CC[C@@H]1/C=C(\C)C[C@H](C)C[C@H](OC)[C@H]2O[C@@](O)(C(=O)C(=O)N3CCCC[C@H]3C(=O)O[C@H](/C(C)=C/[C@@H]3CC[C@@H](O)[C@H](OC)C3)[C@H](C)[C@@H](O)CC1=O)[C@H](C)C[C@@H]2OC` [Tacrolimus (FK506)], 102.1%; that for `CN(C(=O)c1ccc(F)cc1C(F)(F)F)C1CCN(c2nnc(-c3ccnn3C)c3ccccc23)CC1` [Taladegib (LY2940680)], 105.5%.
The same measure, in the same setting: with `CC1(C)CCC(C)(C)c2cc(NC(=O)c3ccc(C(=O)O)cc3)ccc21` [Tamibarotene] the figure was 94.85%.
Take `CC/C(=C(\c1ccccc1)c1ccc(OCCN(C)C)cc1)c1ccccc1` [Tamoxifen Citrate]: the “Relative cell viability (%)” value under setting [1] is 47.42%.
Still for that read-out and setting: with `CC/C(=C(\c1ccccc1)c1ccc(OCCN(C)C)cc1)c1ccccc1` [Tamoxifen] the figure was 18.22%.
On to `O=C(NS(=O)(=O)c1ccc(Br)s1)c1ccc(Cl)cc1Cl` [Tasisulam], for which the “Relative cell viability (%)” value (relative to DMSO) came out at 94.44%.
On the same count and under the same terms, the result for `CCCc1nc2c(C)cc(-c3nc4ccccc4n3C)cc2n1Cc1ccc(-c2ccccc2C(=O)O)cc1` [Telmisartan] reads 47.46%.
